Assay results reported in US5084462A, “4-quinoline carboxylic acid derivatives useful as immunosuppressive agents” (The Du Pont Merck Pharmaceutical Company, priority 1990, dated 1992).
Where two headings read alike, the source gives them in different places.

Key:
[1] = test system: human mixed lymphocyte reaction; assay: Human mixed lymphocyte reaction (3H-thymidine incorporation); type: cell-based; details: Table 4, human PBMC of two donors, 6 days
Source text: Contact sensitivity to DNFB has teen extensively studied and characterized in the mouse to determine the regulatory mechanisms involved in cell mediated immune responses (Claman, et al., Immunol Rev 50:105, 1980). This is an antigen-specific T-cell mediated inflammatory response that represents delayed-type hypersensitivity reactions seen in both humans and other mammals. The primary use of the human mixed lymphocyte reaction is for the determination of transplantation compatibility between the donor (graft) and the recipient (Park and Good, p. 71. In Yunis, et al., Tissue typing and organ transplantation. 1973 Academic Press Inc., N.Y.).
Blood was obtained by venipuncture from two nonrelated human donors. Peripheral blood mononuclear cells (PBMC) were isolated from these samples by using the Leuco Prep procedure (Becton-Dickinson). PBMC were washed twice in phosphate buffered saline (without calcium and magnesium) and the separate cell isolations were adjusted to the appropriate concentrations in media (RPMI 1640) supplemented with 10% human AB serum and […] gentamicin. Cells from donor A (2×10^5) were incubated with cells from donor B (2×10^5) in 96 well round bottom microliter plates at 37° C., 5% CO2 for 6 days. Eighteen hours prior to harvesting cells from the plates, all wells were pulsed with 1 μCi of ^3 H-thymidine. Cells from the plates were harvested on day 6 and ^3 H-thymidine incorporation was determined using a scintillation counter.

[2] = test system: contact sensitivity response to 2,4-dinitrofluorobenzene (DNFB); assay: Contact sensitivity response to 2,4-dinitrofluorobenzene (DNFB) in mice; type: in vivo, Balb/c female mice; details: for ED50 / inhibition in vivo at 0.4 mg/kg / inhibition in vivo at 2 mg/kg / inhibition in vivo at 10 mg/kg / inhibition in vivo at 20 mg/kg: Mus musculus; for inhibition in vivo at 0.4 mg/kg / inhibition in vivo at 2 mg/kg / inhibition in vivo at 10 mg/kg / inhibition in vivo at 20 mg/kg: 24 h
Description: This is an antigen-specific T-cell mediated inflammatory response that represents delayed-type hypersensitivity reactions seen in both humans and other mammals.
Balb/c female mice (.perspectiveto.20g, Charles River) were sensitized on the shaved abdomen with 25 μl of 0.5% 2,4-dinitrofluorobenzene ([…], Eastman Kodak Co.) in a vehicle of 4:1 acetone:olive oil on days 0 and 1. Mice were ear challenged with 20 μl of 0.2% DNFB in a vehicle of 4:1 acetone:olive oil on day 5. A constant area of the ears was measured immediately before challenge and 24 hours later with an engineer's micrometer. Ear swelling was expressed as the difference in ear thickness before and after challenge in units of 10^-4 inches±SEM. Percent suppression was calculated as: [formula] […] Negative controls were not sensitized on days 0 and 1 but were ear challenged on day 5. Ten mice were used per group.

[3] = test system: adjuvant-induced arthritis; assay: Adjuvant-induced arthritis in rats; type: in vivo, Male Lewis rats; details: for ED50: Rattus norvegicus, 432 h, adjuvant-induced arthritis; for Non-Injected Hind-Paw Volume / % Suppression: day 18; for % Suppression: Table 5, non-injected hind paw
Description: Rat adjuvant-induced arthritis represents a systemic inflammatory disease with bone and cartilage changes similar to that observed in rheumatoid arthritis, but in an accelerated time span (Pearson, Arth Rheum 7:80, 1964).
Male Lewis rats (Charles River) weighing 160-210 grams were injected subcutaneously with 0.1 ml of Freund's Complete Adjuvant containing 5 mg of M. butyricum/ml of paraffin oil (Difco Laboratories) into the plantar region of the right hind paw. Paraffin oil was injected for non-arthritic controls. Ten rats were used per group. Compounds were prepared in 0.25% Methocel® (Dow Chemical Co) with one drop of Tween® 80 per 10 ml of Methocel®. Animals were dosed every day beginning on the day of paw injection until day 18. The weight of each animal was recorded every other day beginning on the day of the paw injections. On day 18 the animals were weighed, and the non-injected hind paw volume was measured using a Ugo Basile Volume Differential Plethysmometer.

[4] = po, read-out: % Suppression, Table 2, ear swelling, 0.4 mg/kg oral
[5] = po, read-out: % Suppression, Table 2, ear swelling, 2.0 mg/kg oral
[6] = po, read-out: % Suppression, Table 2, ear swelling, 10.0 mg/kg oral
[7] = po, read-out: % Suppression, Table 2, ear swelling, 20.0 mg/kg oral
[8] = Table 5, 10 mg/kg daily to day 18
[9] = po, Table 3, ear swelling, 20.0 mg/kg oral, read-out: % Suppression

## Cc1c(-c2ccc(-c3ccccc3F)cc2)nc2ccc(F)cc2c1C(=O)[O-].[Na+] [Example 2, Sodium 2-(2'-Fluoro-1,1'-biphenyl-4-yl)-6-fluoro-3-methylquinoline-4-carboxylate]
[1]
  IC50: 25 nM
[2]; po
  ED50: 0.95 mg/kg
[2]; [4]
  inhibition in vivo at 0.4 mg/kg: 30.2%
[2]; [5]
  inhibition in vivo at 2 mg/kg: 66.1%
[2]; [6]
  inhibition in vivo at 10 mg/kg: 92.3%
[2]; [7]
  inhibition in vivo at 20 mg/kg: 94.5%
[2]; Table 2, 0.4 mg/kg oral
  Ear Swelling (units ± SEM), increase in ear thickness from day 5 to day 6: 51.95 ± 2.33 10^-4 inches
[2]; Table 2, 2.0 mg/kg oral
  Ear Swelling (units ± SEM), increase in ear thickness from day 5 to day 6: 25.61 ± 3.39 10^-4 inches
[2]; Table 2, 10.0 mg/kg oral
  Ear Swelling (units ± SEM), increase in ear thickness from day 5 to day 6: 6.40 ± 1.09 10^-4 inches
[2]; Table 2, 20.0 mg/kg oral
  Ear Swelling (units ± SEM), increase in ear thickness from day 5 to day 6: 4.75 ± 1.20 10^-4 inches
[3]; Table 5 footnote
  ED50: < 10 mg/kg
[3]; Table 5, 2.0 mg/kg daily to day 18
  Weight Gain: -1.5 ± 3.6 g
[3]; Table 5, 2.0 mg/kg daily
  Non-Injected Hind-Paw Volume: 1.62 ± 0.05 mL
[3]; [8]
  Weight Gain: 65.6 ± 5.2 g
[3]; Table 5, 10 mg/kg daily
  Non-Injected Hind-Paw Volume: 1.15 ± 0.02 mL
[3]; 2.0 mg/kg daily
  % Suppression: 34.5%
[3]; 10 mg/kg daily
  % Suppression: 96.2%
[3]; Table 5 footnote, 25.0 mg/kg daily
  Toxicity: Toxic by day 7

## Cc1c(-c2ccc([S+]([O-])c3ccccc3)cc2)nc2ccc(F)cc2c1C(=O)O (stereo not drawn) [Example 10]
[2]; [9]
  inhibition in vivo at 20 mg/kg: 22.4%
[2]; Table 3, 20.0 mg/kg oral
  Ear Swelling (units ± SEM), increase in ear thickness from day 5 to day 6: 57.28 ± 2.36 10^-4 inches

## Cc1ccc2nc(-c3ccc(-c4ccccc4)cc3)c(C)c(C(=O)O)c2c1 [Example 5]
[2]; [9]
  inhibition in vivo at 20 mg/kg: 53.4%
[2]; Table 3, 20.0 mg/kg oral
  Ear Swelling (units ± SEM), increase in ear thickness from day 5 to day 6: 35.47 ± 2.31 10^-4 inches

## Cc1c(-c2ccc(Sc3ccccc3)cc2)nc2ccc(Cl)cc2c1C(=O)O [Example 7]
[2]; [9]
  inhibition in vivo at 20 mg/kg: 14.4%
[2]; Table 3, 20.0 mg/kg oral
  Ear Swelling (units ± SEM), increase in ear thickness from day 5 to day 6: 62.95 ± 3.40 10^-4 inches

## O=C(O)c1cc(-c2ccc(-c3ccccc3)cc2)nc2ccc(F)cc12 [Example 9]
[2]; [9]
  inhibition in vivo at 20 mg/kg: 43.3%
[2]; Table 3, 20.0 mg/kg oral
  Ear Swelling (units ± SEM), increase in ear thickness from day 5 to day 6: 42.60 ± 2.68 10^-4 inches

## CN(Cc1cnc2nc(N)nc(N)c2n1)c1ccc(C(=O)N[C@@H](CCC(=O)O)C(=O)O)cc1 [Methotrexate, reference compound]
[1]
  IC50: 2.5 nM
[2]; po, Table 2, ear swelling, 0.4 mg/kg oral, read-out: % Suppression
  inhibition in vivo at 0.4 mg/kg: 3.83%
[2]; po, Table 2, ear swelling, 2.0 mg/kg oral, read-out: % Suppression
  inhibition in vivo at 2 mg/kg: 18.1%
[2]; po, Table 2, ear swelling, 10.0 mg/kg oral, read-out: % Suppression
  inhibition in vivo at 10 mg/kg: 51.8%
[2]; po, Table 2, ear swelling, 20.0 mg/kg oral, read-out: % Suppression
  inhibition in vivo at 20 mg/kg: 63.6%
[2]; [9]
  inhibition in vivo at 20 mg/kg: 79.7%
[2]; Table 2, suppression of ear swelling, oral, days -2 through 6, read-out: ED50
  ED50: 9 mg/kg
[2]; Table 2, 0.4 mg/kg oral
  Ear Swelling (units ± SEM), increase in ear thickness from day 5 to day 6: 71.30 ± 2.96 10^-4 inches
[2]; Table 2, 2.0 mg/kg oral
  Ear Swelling (units ± SEM), increase in ear thickness from day 5 to day 6: 60.80 ± 1.99 10^-4 inches
[2]; Table 2, 10.0 mg/kg oral
  Ear Swelling (units ± SEM), increase in ear thickness from day 5 to day 6: 36.10 ± 3.23 10^-4 inches
[2]; Table 2, 20.0 mg/kg oral
  Ear Swelling (units ± SEM), increase in ear thickness from day 5 to day 6: 27.45 ± 4.99 10^-4 inches
[2]; Table 3, 20.0 mg/kg oral
  Ear Swelling (units ± SEM), increase in ear thickness from day 5 to day 6: 16.94 ± 2.10 10^-4 inches

## Cc1c(-c2ccc(-c3ccccc3)cc2)nc2cccc(Cl)c2c1C(=O)[O-].[Na+] [Example 1, Sodium 2-(1,1'-Biphenyl-4-yl)-5-chloro-3-methyl-quinoline-4-carboxylate]
[1]
  IC50: 9.6 nM
[2]; po
  ED50: 3.5 mg/kg
[2]; [4]
  inhibition in vivo at 0.4 mg/kg: 11%
[2]; [5]
  inhibition in vivo at 2 mg/kg: 23.4%
[2]; [6]
  inhibition in vivo at 10 mg/kg: 92.7%
[2]; [7]
  inhibition in vivo at 20 mg/kg: 93.9%
[2]; Table 2, 0.4 mg/kg oral
  Ear Swelling (units ± SEM), increase in ear thickness from day 5 to day 6: 66.05 ± 4.32 10^-4 inches
[2]; Table 2, 2.0 mg/kg oral
  Ear Swelling (units ± SEM), increase in ear thickness from day 5 to day 6: 56.94 ± 4.80 10^-4 inches
[2]; Table 2, 10.0 mg/kg oral
  Ear Swelling (units ± SEM), increase in ear thickness from day 5 to day 6: 6.10 ± 0.75 10^-4 inches
[2]; Table 2, 20.0 mg/kg oral
  Ear Swelling (units ± SEM), increase in ear thickness from day 5 to day 6: 5.20 ± 1.17 10^-4 inches
[3]; Table 5 footnote
  ED50: 21 mg/kg
[3]; [8]
  Weight Gain: -14.0 ± 4.2 g
[3]; Table 5, 10 mg/kg daily
  Non-Injected Hind-Paw Volume: 1.87 ± 0.08 mL
[3]; Table 5, 17.5 mg/kg daily to day 18
  Weight Gain: 2.8 ± 5.3 g
[3]; Table 5, 17.5 mg/kg daily
  Non-Injected Hind-Paw Volume: 1.72 ± 0.08 mL
[3]; Table 5, 25.0 mg/kg daily to day 18
  Weight Gain: 20.6 ± 6.3 g
[3]; Table 5, 25.0 mg/kg daily
  Non-Injected Hind-Paw Volume: 1.34 ± 0.10 mL
[3]; 10 mg/kg daily
  % Suppression: 1.4%
[3]; 17.5 mg/kg daily
  % Suppression: 20.8%
[3]; 25.0 mg/kg daily
  % Suppression: 70.6%

## Cc1c(-c2ccc(SC(C)C)cc2)nc2ccc(F)cc2c1C(=O)O [Example 6]
[2]; [9]
  inhibition in vivo at 20 mg/kg: 21.1%
[2]; Table 3, 20.0 mg/kg oral
  Ear Swelling (units ± SEM), increase in ear thickness from day 5 to day 6: 58.20 ± 4.63 10^-4 inches
